Laboratory results taken from PMC6151599, “Intestinal Absorption of Triterpenoids and Flavonoids from Glycyrrhizae radix et rhizoma in the Human Caco-2 Monolayer Cell Model” (Molecules : A Journal of Synthetic Chemistry and Natural …, 2017).
Entries after “also recorded” stand apart in the source; their conditions may differ. Like-named read-outs stand apart in the source and are kept apart here.

Columns and labels:
[1] = Bidirectional transport (Papp) across Caco-2 cell monolayer; assay type: in vitro ADME, human; details: human; for efflux ratio at 90 min, 50 µM: Caco-2, Caco-2 monolayer, read-out: Efflux Ratio (Papp BL→AP to Papp AP→BL); for Papp A→B at 90 min, 50 µM / Papp B→A at 90 min, 50 µM / Papp at 90 min, 50 µM: Caco-2 monolayer; for Papp A→B at 90 min, 50 µM / Papp B→A at 90 min, 50 µM: incubation up to 90 min, n = 3; for Papp at 90 min, 50 µM: both directions
Procedure: (§1) The Caco-2 cell monolayer permeability was carried out according to the previously reported method. Briefly, the Caco-2 cells were maintained in DMEM containing 10% FBS, 1% NEAA, 100 units/mL of penicillin, and 100 µg/mL of streptomycin, in a constant humidity atmosphere of 5% CO2 and 95% air at 37 °C. For confluence and differentiation, cells were seeded at a density of 1 × 10^5 cells/cm^2 into 12-well Transwell plates (insert diameter 12 mm, pore size 3.0 μm, membrane growth area 1.12 cm^2, Costar® #3402) and were allowed to grow for 21 days before the permeation experiment. On day 21, the monolayers with TEER values > 500 Ω·cm^2 were qualified for the transport experiment. The transport study was initiated by the careful removal of the culture medium from AP and BL sides of the inserts. Caco-2 monolayers were rinsed twice with pre-warmed HBSS and were incubated by pre-warmed HBSS for 30 min at 37 °C. […] The assayed solutions (50 µM) were added to the AP side (0.5 mL, for absorption transport) or BL side (1.5 mL, for efflux transport) of the inserts, while the receiving chamber contained the corresponding volume of HBSS. Incubation was performed at 37 °C for 90 min, with shaking at 50 rpm. Samples were collected from the inserts and lyophilized. The dried sample was then sonicated with the appropriate volume of MeOH, followed by centrifugation at 15,000× g for 10 min. The supernatant was filtered through a 0.45 μm filter and injected into HPLC system for quantitative analysis.
(§2) The AP to BL or BL to AP permeability coefficient (Papp) value of each compound was calculated based on the following equation:Papp = (dQ/dt) × (1/A) × (1/C0) (cm/s)(1) where dQ/dt is the rate of the appearance of the test compound on the receiver compartment (μmol/s), C0 is the initial test compound concentration on the donor compartment (μmol/mL), and A is the surface area of Caco-2 monolayer (cm^2).
(§3) While shaking the samples (37 °C, 50 rpm), 1.3 mL aliquots were taken from BL side or 0.45 mL aliquots were taken from AP side at 30 min intervals from […].
(§4) After shaking the samples (37 °C, 50 rpm) in a shaking water bath for 90 min, aliquots were collected as described above.

Caco-2 cell monolayer [2] = experiment: as above; assay type: in vitro ADME, human; details: for Absorption designation: from Caco-2 Papp compared with propranolol and atenolol; for Time course of bilateral permeation: 0–180 min at 50 μM; for Transport mechanism / Efflux Ratio (Papp BL→AP to Papp AP→BL): Caco-2 monolayer; for Efflux Ratio (Papp BL→AP to Papp AP→BL): 90 min; for Concentration dependence of rate of membrane permeation: at 90 min within test range of concentration
Procedure: as §1, §2, §3, §4

[3] = Intracellular accumulation and total recovery (mass balance) at the end of transport; assay type: in vitro ADME, human; details: human, Caco-2, end of transport, n = 3
Procedure: (§5) To measure the amount of intracellular accumulation, the Caco-2 cells were rinsed three times with ice-cold HBSS at the end of transport experiments. After three freeze (−20 °C)-thaw (room temperature) cycles, the lysed Caco-2 cells were lyophilized. The dried cells were sonicated in 0.2 mL of 70% aqueous MeOH for 20 min and then centrifuged at 15,000× g for 10 min. The supernatant was filtered through a 0.45 μm filter and a 10 μL aliquot was injected into the HPLC system for analysis. To check the mass balance, the recoveries of the assayed compounds were measured at both sides of the insert and intracellular accumulation of the Caco-2 cells.

Caco-2 cell monolayer [4] = experiment: as above; assay type: in vitro ADME, human
Procedure: as §5

Caco-2 cell monolayer [5] = details: cited from earlier work; for Absorption designation: from previously reported Caco-2 Papp
[6] = Bidirectional transport (Papp) across Caco-2 cell monolayer; assay type: in vitro ADME; details: human, ratio of previously reported Papp values (refs 35, 36), read-out: Efflux Ratio (Papp BL→AP to Papp AP→BL)
[7] = end of transport, n = 3, –: not detected

CC(C)NCC(O)COc1cccc2ccccc12 (stereo not shown) [propranolol, reference compound]
Papp ([1]; Caco-2, read-out: Papp of transport markers): 25.1 ×10⁻⁶ cm/s

C=CC(C)(C)c1cc(/C=C/C(=O)c2ccc(O)cc2)c(OC)cc1O [Compound 4, licochalcone A]
efflux ratio at 90 min, 50 µM [1]: 1.06 | Papp A→B at 90 min, 50 µM [1]: 1.68 ± 0.13 ×10⁻⁶ cm/s | Papp B→A at 90 min, 50 µM [1]: 1.78 ± 0.03 ×10⁻⁶ cm/s | Absorption designation (Caco-2 cell monolayer [2]): moderately absorbed | recovery ([3]; read-out: Total recovery AP→BL): 81.88 ± 0.67% | recovery ([3]; read-out: Total recovery BL→AP): 90.4 ± 2.74% | Cell accumulation / intracellular uptake (in words) (Caco-2 cell monolayer [4]; all bidirectional transport): higher intracellular uptake; also recorded: higher accumulation | Total recovery AP→BL (Caco-2 cell monolayer [4]; end of transport, n = 3): relatively lower | CA (cell accumulation) AP→BL (Caco-2 cell monolayer [4]; [7]): 50.52 ± 1.88% | CA (cell accumulation) BL→AP (Caco-2 cell monolayer [4]; [7]): 42.56 ± 2.36%

O=C1C[C@@H](c2ccc(O[C@@H]3O[C@H](CO)[C@@H](O)[C@H](O)[C@H]3O)cc2)Oc2cc(O)ccc21 [Compound 13, liquiritin]
Papp AP→BL (Caco-2 cell monolayer [5]; Caco-2 monolayer): 0.54 ± 0.02 ×10^−6 cm/s | Papp BL→AP (Caco-2 cell monolayer [5]; Caco-2 monolayer): 0.53 ± 0.03 ×10^−6 cm/s | Papp from BL to AP direction (Caco-2 cell monolayer [5]; Caco-2 monolayer): (5.32 ± 0.31) × 10^−7 cm/s | Papp values (bidirectional) (Caco-2 cell monolayer [5]; Caco-2 monolayer): ~0.1 ×10⁻⁶ cm/s | Absorption designation (Caco-2 cell monolayer [5]): poorly absorbed | efflux ratio [6]: 0.98

COc1cc(O)ccc1/C=C/C(=O)c1ccc(O)cc1 [Compound 7, echinatin]
efflux ratio at 90 min, 50 µM [1]: 1.15 | Papp A→B at 90 min, 50 µM [1]: 20.7 ± 1 ×10⁻⁶ cm/s | Papp B→A at 90 min, 50 µM [1]: 23.8 ± 0.3 ×10⁻⁶ cm/s | recovery ([3]; read-out: Total recovery AP→BL): 96.9 ± 2.67% | recovery ([3]; read-out: Total recovery BL→AP): 97.7 ± 3.29%

CC1(C)[C@@H](O)CC[C@]2(C)[C@H]3C(=O)C=C4[C@@H]5C[C@@](C)(C(=O)O)CC[C@]5(C)CC[C@@]4(C)[C@]3(C)CC[C@@H]12 [Compound 3, glycyrrhetinic acid]
efflux ratio at 90 min, 50 µM [1]: 1.06 to 1.11 | Papp A→B at 90 min, 50 µM [1]: 12.6 ± 0.4 ×10⁻⁶ cm/s | Papp B→A at 90 min, 50 µM [1]: 14 ± 1.3 ×10⁻⁶ cm/s | Papp at 90 min, 50 µM [1]: > 10 ×10⁻⁶ cm/s | Time course of bilateral permeation (Caco-2 cell monolayer [2]): increased approximately linearly | Transport mechanism (Caco-2 cell monolayer [2]): passive diffusion | Efflux Ratio (Papp BL→AP to Papp AP→BL) (Caco-2 cell monolayer [2]): 1.11 | Concentration dependence of rate of membrane permeation (Caco-2 cell monolayer [2]): increased approximately linearly | recovery ([3]; read-out: Total recovery AP→BL): 85.1 ± 2.33% | recovery ([3]; read-out: Total recovery BL→AP): 98.24 ± 0.59% | CA (cell accumulation) AP→BL (Caco-2 cell monolayer [4]; [7]): 0.25 ± 0.01%

COc1c(/C=C/C(=O)c2ccc(O)cc2)ccc(O)c1O [Compound 5, licochalcone B]
efflux ratio at 90 min, 50 µM [1]: 1.22 | Papp A→B at 90 min, 50 µM [1]: 24.7 ± 2.8 ×10⁻⁶ cm/s | Papp B→A at 90 min, 50 µM [1]: 30.2 ± 2.4 ×10⁻⁶ cm/s | recovery ([3]; read-out: Total recovery AP→BL): 96.2 ± 0.19% | recovery ([3]; read-out: Total recovery BL→AP): 94.5 ± 2.89%

O=C(/C=C/c1ccc(O[C@@H]2O[C@H](CO)[C@@H](O)[C@H](O)[C@H]2O)cc1)c1ccc(O)cc1O [Compound 12, isoliquiritin]
Papp AP→BL (Caco-2 cell monolayer [5]; Caco-2 monolayer): 0.87 ± 0.02 ×10^−6 cm/s | Papp BL→AP (Caco-2 cell monolayer [5]; Caco-2 monolayer): 0.77 ± 0.07 ×10^−6 cm/s | Papp from AP to BL direction (Caco-2 cell monolayer [5]; Caco-2 monolayer): (8.69 ± 0.15) × 10^−7 cm/s | Papp from BL to AP direction (Caco-2 cell monolayer [5]; Caco-2 monolayer): (7.68 ± 0.66) × 10^−7 cm/s | Papp values (bidirectional) (Caco-2 cell monolayer [5]; Caco-2 monolayer): ≤ 0.1 ×10⁻⁶ cm/s | Absorption designation (Caco-2 cell monolayer [5]): poorly absorbed | efflux ratio [6]: 0.89

O=C(/C=C/c1ccc(O)cc1)c1ccc(O)cc1O [Compound 11, isoliquiritigenin]
Papp BL→AP (Caco-2 cell monolayer [5]; Caco-2 monolayer): 9.35 ± 0.43 ×10^−6 cm/s

O=C1C[C@@H](c2ccc(O)cc2)Oc2cc(O)ccc21 [Compound 9, liquiritigenin]
efflux ratio at 90 min, 50 µM [1]: 0.88 | Papp A→B at 90 min, 50 µM [1]: 17.8 ± 0.6 ×10⁻⁶ cm/s | Papp B→A at 90 min, 50 µM [1]: 15.7 ± 0.3 ×10⁻⁶ cm/s | Papp at 90 min, 50 µM [1]: ~10 ×10⁻⁶ cm/s | Time course of bilateral permeation (Caco-2 cell monolayer [2]): increased approximately linearly | Concentration dependence of rate of membrane permeation (Caco-2 cell monolayer [2]): increased approximately linearly | recovery ([3]; read-out: Total recovery AP→BL): 87 ± 2.78% | recovery ([3]; read-out: Total recovery BL→AP): 94.8 ± 4.29%

COc1c(/C=C/C(=O)c2ccc(O)cc2)ccc(O)c1CC=C(C)C [Compound 6, licochalcone C]
efflux ratio at 90 min, 50 µM [1]: 1.17 | Papp A→B at 90 min, 50 µM [1]: 22.5 ± 1 ×10⁻⁶ cm/s | Papp B→A at 90 min, 50 µM [1]: 26.4 ± 1.3 ×10⁻⁶ cm/s | recovery ([3]; read-out: Total recovery AP→BL): 97.5 ± 1.26% | recovery ([3]; read-out: Total recovery BL→AP): 96.1 ± 4.55%

CC1(C)[C@@H](O[C@@H]2O[C@H](C(=O)O)[C@@H](O)[C@H](O)[C@H]2O)CC[C@]2(C)[C@H]3C(=O)C=C4[C@@H]5C[C@@](C)(C(=O)O)CC[C@]5(C)CC[C@@]4(C)[C@]3(C)CC[C@@H]12 [Compound 2, glycyrrhetic acid-3-O-mono-β-D-glucuronide]
efflux ratio at 90 min, 50 µM [1]: 1.06 to 1.11 | Papp A→B at 90 min, 50 µM [1]: 1.55 ± 0.09 ×10⁻⁶ cm/s | Papp B→A at 90 min, 50 µM [1]: 1.65 ± 0.95 ×10⁻⁶ cm/s | Papp at 90 min, 50 µM [1]: ~1 ×10⁻⁶ cm/s | Time course of bilateral permeation (Caco-2 cell monolayer [2]): increased approximately linearly | Transport mechanism (Caco-2 cell monolayer [2]): passive diffusion | Efflux Ratio (Papp BL→AP to Papp AP→BL) (Caco-2 cell monolayer [2]): 1.06 | Concentration dependence of rate of membrane permeation (Caco-2 cell monolayer [2]): increased approximately linearly | Absorption designation (Caco-2 cell monolayer [2]): moderately absorbed | recovery ([3]; read-out: Total recovery AP→BL): 97.04 ± 0.36% | recovery ([3]; read-out: Total recovery BL→AP): 91.6 ± 1.27%

CC1(C)[C@@H](O[C@H]2O[C@H](C(=O)O)[C@@H](O)[C@H](O)[C@H]2O[C@@H]2O[C@H](C(=O)O)[C@@H](O)[C@H](O)[C@H]2O)CC[C@]2(C)[C@H]3C(=O)C=C4[C@@H]5C[C@@](C)(C(=O)O)CC[C@]5(C)CC[C@@]4(C)[C@]3(C)CC[C@@H]12 [Compound 1, glycyrrhizin]
Papp at 90 min, 50 µM [1]: < 0.1 ×10⁻⁶ cm/s | Detection of compound in the receiving side (Caco-2 cell monolayer [2]; after incubation for 90 min, AP→BL and BL→AP): not detected; also recorded: below the lower limit of detection | Absorption designation (Caco-2 cell monolayer [2]): very poorly absorbed; also recorded: poorly absorbed
